Experimental data: ChEMBL document CHEMBL1201862, “PubChem BioAssay data set” (2004)
One block for each molecule: values may come before it. Calls of active or inactive are those of the source.

Legend:
[1] = target: Voltage-dependent T-type calcium channel subunit alpha-1H (Homo sapiens, UniProt O95180); experiment: inhibition of CACNA1H calcium flux – cell-based, SynthLib3 library, HEK293 Cav3.2, fluorescence (AID 493041); type: functional
Tumor necrosis factor = Tumor necrosis factor (Homo sapiens, UniProt P01375); experiment: analog potency on TNFa NF-kB signaling – cell-based, set 3, SAR follow-up (AID 2801); type: functional
Tumor necrosis factor, sequence (P01375 whole entry, the tested form may be a part): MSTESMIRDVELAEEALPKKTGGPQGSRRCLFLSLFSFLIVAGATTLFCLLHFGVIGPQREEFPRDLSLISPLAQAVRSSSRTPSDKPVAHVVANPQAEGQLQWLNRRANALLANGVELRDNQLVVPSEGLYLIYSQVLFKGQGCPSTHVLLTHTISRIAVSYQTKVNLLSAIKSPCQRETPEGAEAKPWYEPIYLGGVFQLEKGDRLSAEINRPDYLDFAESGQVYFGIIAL

[2] = target: T1, Nucleotide-binding oligomerization domain-containing protein 1 (Homo sapiens, UniProt Q9Y239); experiment: SAR analysis of compounds that inhibit NOD1 - Set 3. [Related pubchem assays (depositor defined):AID1566, AID1575, AID1578, AID1849, AID1852, AID2333, AID2335, AID2466]; type: functional
T1 sequence (Q9Y239 whole entry): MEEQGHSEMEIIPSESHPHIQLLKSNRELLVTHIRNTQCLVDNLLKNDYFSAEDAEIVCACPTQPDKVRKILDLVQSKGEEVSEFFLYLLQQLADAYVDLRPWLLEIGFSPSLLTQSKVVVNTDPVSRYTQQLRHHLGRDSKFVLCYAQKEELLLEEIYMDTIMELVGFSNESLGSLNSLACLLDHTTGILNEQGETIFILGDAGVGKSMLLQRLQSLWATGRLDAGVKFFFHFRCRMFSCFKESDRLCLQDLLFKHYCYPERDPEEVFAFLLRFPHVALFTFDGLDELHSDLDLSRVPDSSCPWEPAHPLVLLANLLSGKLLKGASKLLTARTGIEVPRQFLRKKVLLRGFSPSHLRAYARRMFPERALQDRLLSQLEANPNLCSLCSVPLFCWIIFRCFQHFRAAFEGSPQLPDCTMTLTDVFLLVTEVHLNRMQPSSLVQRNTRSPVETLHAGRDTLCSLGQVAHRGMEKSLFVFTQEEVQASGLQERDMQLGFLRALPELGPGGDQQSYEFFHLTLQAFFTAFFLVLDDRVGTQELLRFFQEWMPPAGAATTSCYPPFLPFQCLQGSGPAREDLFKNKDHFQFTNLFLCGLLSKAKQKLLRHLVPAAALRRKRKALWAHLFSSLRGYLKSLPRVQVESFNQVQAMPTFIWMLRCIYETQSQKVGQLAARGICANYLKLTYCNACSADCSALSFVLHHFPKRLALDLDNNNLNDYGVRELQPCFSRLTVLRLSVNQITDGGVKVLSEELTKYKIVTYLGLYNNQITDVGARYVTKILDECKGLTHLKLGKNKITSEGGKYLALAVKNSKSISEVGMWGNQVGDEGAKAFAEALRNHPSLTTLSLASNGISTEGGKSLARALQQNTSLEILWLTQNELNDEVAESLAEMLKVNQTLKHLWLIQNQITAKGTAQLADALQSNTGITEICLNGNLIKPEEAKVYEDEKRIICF

HEK293 = experiment: SAR analysis of compounds that are cytotoxic to HEK293 - Set 3. [Related pubchem assays (depositor defined):AID1575, AID1578, AID1848, AID1849, AID2001, AID2333, AID2334, AID2335, AID2337, AID2469]; type: functional, cell-based; conditions: Homo sapiens
[3] = target: Nucleotide-binding oligomerization domain-containing protein 2 (Homo sapiens, UniProt Q9HC29); experiment: inhibition of MDP-driven NOD2 NF-kB reporter – cell-based, set 3, SAR follow-up (AID 2799); type: functional
Nucleotide-binding oligomerization domain-containing protein 2, sequence (Q9HC29 whole entry, the tested form may be a part): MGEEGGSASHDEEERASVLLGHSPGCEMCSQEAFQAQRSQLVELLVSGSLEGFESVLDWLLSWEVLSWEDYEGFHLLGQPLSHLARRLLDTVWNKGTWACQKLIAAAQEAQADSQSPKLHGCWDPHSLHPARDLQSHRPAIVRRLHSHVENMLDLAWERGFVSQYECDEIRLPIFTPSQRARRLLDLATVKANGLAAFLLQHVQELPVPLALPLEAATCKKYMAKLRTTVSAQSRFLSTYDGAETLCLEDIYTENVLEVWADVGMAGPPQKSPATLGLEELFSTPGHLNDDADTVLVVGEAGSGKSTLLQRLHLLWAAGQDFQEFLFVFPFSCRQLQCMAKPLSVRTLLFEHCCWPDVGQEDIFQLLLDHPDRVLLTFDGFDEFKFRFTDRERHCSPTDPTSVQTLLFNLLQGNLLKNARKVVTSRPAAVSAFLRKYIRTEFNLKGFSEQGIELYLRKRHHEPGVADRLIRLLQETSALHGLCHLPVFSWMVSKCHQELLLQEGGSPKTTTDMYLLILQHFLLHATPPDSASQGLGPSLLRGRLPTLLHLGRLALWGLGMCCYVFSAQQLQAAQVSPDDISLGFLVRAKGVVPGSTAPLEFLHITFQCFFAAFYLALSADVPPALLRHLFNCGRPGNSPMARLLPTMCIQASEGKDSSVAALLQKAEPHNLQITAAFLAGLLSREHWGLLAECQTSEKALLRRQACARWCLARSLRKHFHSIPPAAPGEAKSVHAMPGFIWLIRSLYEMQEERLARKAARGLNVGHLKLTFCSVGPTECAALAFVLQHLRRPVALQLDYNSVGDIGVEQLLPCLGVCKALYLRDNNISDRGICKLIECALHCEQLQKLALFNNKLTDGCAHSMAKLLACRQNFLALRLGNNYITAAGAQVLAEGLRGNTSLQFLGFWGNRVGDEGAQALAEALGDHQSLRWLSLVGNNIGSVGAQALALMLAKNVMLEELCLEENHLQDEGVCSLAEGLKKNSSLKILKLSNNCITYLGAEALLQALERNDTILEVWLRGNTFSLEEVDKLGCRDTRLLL

[4] = target: T2, Intestinal-type alkaline phosphatase (Homo sapiens, UniProt P09923); experiment: inhibition of human intestinal alkaline phosphatase – biochemical, dose response (AID 488876); type: functional
T2 sequence (P09923 whole entry): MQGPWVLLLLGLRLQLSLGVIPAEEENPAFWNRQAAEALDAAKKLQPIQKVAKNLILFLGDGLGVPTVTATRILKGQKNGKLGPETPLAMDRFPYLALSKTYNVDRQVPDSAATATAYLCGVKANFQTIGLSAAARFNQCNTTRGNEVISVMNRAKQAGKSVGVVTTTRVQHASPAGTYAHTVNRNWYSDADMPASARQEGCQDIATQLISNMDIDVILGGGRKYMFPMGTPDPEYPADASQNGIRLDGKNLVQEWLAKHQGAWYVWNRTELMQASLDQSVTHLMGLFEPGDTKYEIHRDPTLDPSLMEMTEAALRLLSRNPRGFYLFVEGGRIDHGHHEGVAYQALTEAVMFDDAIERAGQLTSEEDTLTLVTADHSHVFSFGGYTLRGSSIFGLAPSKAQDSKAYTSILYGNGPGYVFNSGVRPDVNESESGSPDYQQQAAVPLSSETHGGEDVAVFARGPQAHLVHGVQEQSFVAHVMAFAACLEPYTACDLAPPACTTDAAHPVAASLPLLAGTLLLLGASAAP

[5] = target: T3, Intestinal-type alkaline phosphatase (Mus musculus, UniProt P24822); experiment: PubChem AID 488785; type: functional
T3 sequence (P24822 whole entry): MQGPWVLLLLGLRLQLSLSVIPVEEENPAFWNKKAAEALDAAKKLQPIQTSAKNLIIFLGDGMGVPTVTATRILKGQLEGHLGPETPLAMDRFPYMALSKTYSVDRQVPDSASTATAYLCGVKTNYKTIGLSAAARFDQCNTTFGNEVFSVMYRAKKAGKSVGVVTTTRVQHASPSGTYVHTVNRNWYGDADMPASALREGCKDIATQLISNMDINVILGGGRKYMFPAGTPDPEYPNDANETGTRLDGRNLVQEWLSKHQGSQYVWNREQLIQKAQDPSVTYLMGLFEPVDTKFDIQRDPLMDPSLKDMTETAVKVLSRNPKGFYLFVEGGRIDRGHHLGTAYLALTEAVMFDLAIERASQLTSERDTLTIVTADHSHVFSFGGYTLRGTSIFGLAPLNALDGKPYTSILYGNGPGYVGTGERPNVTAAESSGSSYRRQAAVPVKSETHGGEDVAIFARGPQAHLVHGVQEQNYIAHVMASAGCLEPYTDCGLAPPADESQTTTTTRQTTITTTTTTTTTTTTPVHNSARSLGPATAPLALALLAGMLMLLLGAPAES

[6] = target: T4, Alkaline phosphatase, tissue-nonspecific isozyme (Homo sapiens, UniProt P05186); experiment: TNAP enzyme inhibition by screening hits, dose response, selectivity assay for mouse IAP inhibitor project, biochemical, human TNAP, uHTS hits (AID 488906); type: functional
T4 sequence (P05186 whole entry): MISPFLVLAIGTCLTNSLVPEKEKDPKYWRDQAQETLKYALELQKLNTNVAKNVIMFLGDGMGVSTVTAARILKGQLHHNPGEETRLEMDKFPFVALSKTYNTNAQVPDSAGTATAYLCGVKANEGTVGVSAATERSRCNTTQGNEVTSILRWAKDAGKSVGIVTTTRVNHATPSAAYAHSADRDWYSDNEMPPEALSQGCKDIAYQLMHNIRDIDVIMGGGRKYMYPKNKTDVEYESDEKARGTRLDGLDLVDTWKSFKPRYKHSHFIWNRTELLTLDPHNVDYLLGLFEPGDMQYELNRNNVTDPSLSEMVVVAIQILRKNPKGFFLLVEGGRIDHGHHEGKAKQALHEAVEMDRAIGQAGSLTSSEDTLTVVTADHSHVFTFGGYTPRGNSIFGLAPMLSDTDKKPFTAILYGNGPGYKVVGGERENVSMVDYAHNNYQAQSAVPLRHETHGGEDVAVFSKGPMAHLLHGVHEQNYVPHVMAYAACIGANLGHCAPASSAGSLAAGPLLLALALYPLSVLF

[7] = HGIII-sPLA2 enzyme inhibition potency – biochemical, QFRET, IC50, dose response (AID 743457);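 also: green fluorescence rise as the enzyme cleaves BODIPY PC-A2 in liposomes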
[8] = target: T3, Intestinal-type alkaline phosphatase; experiment: PubChem AID 488874; type: functional
[9] = target: T2, Intestinal-type alkaline phosphatase; experiment: Dose Response confirmation of uHTS hits from a small molecule inhibitors of human intestinal alkaline phosphatase via a luminescent assay. [Related pubchem assays (depositor defined):AID2544, AID2574]; type: functional
[10] = target: T2, Intestinal-type alkaline phosphatase; experiment: inhibition of human intestinal alkaline phosphatase – biochemical, luminescent, uHTS hits, set 2, dose response (AID 488793); type: functional
[11] = target: T4, Alkaline phosphatase, tissue-nonspecific isozyme; experiment: inhibition of tissue-nonspecific alkaline phosphatase – biochemical, dose response (AID 488882); type: functional
[12] = target: T2, Intestinal-type alkaline phosphatase; experiment: activation of human intestinal alkaline phosphatase – biochemical, luminescent, uHTS hits, set 2, dose response (AID 488817); type: functional;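 also: potency of activators that raise enzyme activity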
[13] = target: T4, Alkaline phosphatase, tissue-nonspecific isozyme; experiment: activation of tissue-nonspecific alkaline phosphatase – biochemical, TNAP isozyme, human IAP uHTS hits, selectivity assay for human IAP activator project, dose response (AID 488886); type: functional;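 also: potency of compounds raising TNAP activity as a selectivity check on IAP activators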
[14] = target: T2, Intestinal-type alkaline phosphatase; experiment: human intestinal alkaline phosphatase activators, dose response, biochemical, luminescence, uHTS hits (AID 463120); type: functional
[15] = target: T5, Nuclear receptor subfamily 0 group B member 1 (Homo sapiens, UniProt P51843); type: functional, cell-based;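 also: HEK293T cells transfected with SF-1 and DAX-1 plus StAR promoter luciferase reporter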
T5 sequence (P51843 whole entry): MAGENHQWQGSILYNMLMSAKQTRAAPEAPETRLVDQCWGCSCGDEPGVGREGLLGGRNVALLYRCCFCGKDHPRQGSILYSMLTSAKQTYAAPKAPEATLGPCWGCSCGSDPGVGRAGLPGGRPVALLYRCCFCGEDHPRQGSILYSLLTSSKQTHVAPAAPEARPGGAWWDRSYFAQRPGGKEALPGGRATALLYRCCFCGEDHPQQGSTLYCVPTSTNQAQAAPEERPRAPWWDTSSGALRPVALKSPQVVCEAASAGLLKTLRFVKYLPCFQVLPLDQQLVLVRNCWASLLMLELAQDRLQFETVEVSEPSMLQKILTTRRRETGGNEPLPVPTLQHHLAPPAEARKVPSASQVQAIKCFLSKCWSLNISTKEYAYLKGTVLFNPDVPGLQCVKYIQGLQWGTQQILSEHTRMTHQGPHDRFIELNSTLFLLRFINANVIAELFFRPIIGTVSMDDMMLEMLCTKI

cells = type: functional, cell-based
[16] = target: T3, Intestinal-type alkaline phosphatase; experiment: PubChem AID 488875; type: functional
[17] = target: Lysine-specific demethylase 4A (Homo sapiens, UniProt O75164); experiment: inhibition of JMJD2A H3K9me3 demethylation – biochemical, DELFIA europium, cherry-picked samples, selectivity assay for GASC-1 inhibitor project, dose response (AID 488840)
Lysine-specific demethylase 4A, sequence (O75164 whole entry): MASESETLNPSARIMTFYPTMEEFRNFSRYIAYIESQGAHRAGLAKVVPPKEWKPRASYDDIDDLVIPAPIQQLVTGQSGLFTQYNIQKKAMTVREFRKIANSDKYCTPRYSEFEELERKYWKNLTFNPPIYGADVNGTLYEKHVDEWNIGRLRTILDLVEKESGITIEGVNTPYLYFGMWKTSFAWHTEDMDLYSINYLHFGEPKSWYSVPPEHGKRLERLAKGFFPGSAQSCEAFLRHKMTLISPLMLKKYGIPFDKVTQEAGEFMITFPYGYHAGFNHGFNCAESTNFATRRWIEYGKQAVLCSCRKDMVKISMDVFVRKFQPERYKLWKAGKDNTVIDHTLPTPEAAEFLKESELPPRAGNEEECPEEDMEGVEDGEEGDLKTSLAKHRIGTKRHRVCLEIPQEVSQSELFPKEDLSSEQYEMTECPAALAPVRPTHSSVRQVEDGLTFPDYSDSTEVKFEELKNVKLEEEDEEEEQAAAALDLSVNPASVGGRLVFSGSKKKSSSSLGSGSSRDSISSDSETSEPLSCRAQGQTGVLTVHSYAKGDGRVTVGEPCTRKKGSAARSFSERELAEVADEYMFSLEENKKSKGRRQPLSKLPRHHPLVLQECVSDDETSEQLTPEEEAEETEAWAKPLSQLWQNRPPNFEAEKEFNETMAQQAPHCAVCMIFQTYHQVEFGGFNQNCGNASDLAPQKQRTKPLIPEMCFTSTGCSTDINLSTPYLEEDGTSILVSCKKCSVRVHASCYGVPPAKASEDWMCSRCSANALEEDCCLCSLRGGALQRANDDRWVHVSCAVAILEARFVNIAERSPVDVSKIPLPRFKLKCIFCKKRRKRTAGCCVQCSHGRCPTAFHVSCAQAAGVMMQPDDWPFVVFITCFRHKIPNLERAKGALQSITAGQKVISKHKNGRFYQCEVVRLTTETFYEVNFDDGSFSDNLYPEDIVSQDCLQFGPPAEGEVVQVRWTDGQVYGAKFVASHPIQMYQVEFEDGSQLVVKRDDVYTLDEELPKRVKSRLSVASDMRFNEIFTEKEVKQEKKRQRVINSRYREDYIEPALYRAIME

[18] = target: T6, Heat shock factor protein 1 (Mus musculus, UniProt P38532); experiment: decrease of HSF1-responsive luciferase luminescence – cell-based, NIH3T3, dose retest, confirmation (AID 2382); type: functional;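 also: NIH3T3 fibroblasts with HSF1-driven luciferase reporter stressed by proteasome inhibitor MG132; luminescence from HSF1-driven luciferase expression after 8 hours of MG132 stress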
T6 sequence (P38532 whole entry): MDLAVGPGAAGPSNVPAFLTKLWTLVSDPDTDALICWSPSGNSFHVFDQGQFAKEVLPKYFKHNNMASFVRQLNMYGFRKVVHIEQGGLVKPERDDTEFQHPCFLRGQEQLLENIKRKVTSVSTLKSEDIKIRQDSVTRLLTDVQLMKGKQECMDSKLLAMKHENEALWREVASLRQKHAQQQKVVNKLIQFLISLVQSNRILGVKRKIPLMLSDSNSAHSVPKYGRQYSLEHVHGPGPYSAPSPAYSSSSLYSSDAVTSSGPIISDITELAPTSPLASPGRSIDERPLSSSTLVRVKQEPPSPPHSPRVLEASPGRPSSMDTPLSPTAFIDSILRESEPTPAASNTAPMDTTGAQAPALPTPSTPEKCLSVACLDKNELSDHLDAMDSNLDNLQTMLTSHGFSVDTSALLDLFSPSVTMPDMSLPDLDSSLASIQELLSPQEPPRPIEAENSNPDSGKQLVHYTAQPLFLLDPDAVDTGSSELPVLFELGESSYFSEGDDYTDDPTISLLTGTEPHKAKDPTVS

Cytochrome P450 2C19 = Cytochrome P450 2C19 (Homo sapiens, UniProt P33261); experiment: Cytochrome panel assay with activity outcomes. Panel member name: p450-cyp2c19 Compounds with AC50 equal or less than 10 uM are considered active; type: functional; conditions: read-out: AC50
Cytochrome P450 2C19, sequence (P33261 whole entry): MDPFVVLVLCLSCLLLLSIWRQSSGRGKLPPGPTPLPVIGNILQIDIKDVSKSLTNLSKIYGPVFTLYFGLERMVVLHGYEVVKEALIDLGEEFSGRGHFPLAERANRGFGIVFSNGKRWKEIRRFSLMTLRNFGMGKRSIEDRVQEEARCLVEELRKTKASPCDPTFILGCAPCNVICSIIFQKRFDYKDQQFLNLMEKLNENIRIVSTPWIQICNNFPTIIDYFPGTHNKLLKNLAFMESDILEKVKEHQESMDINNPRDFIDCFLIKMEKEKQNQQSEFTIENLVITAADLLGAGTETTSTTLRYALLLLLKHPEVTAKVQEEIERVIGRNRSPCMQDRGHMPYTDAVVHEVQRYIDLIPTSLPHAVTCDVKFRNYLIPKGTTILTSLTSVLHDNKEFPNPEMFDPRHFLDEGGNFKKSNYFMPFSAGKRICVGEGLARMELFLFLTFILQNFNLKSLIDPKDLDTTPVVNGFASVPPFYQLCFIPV

Cytochrome P450 3A4 = Cytochrome P450 3A4 (Homo sapiens, UniProt P08684);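 also: CYP3A4 tested as one member of a cytochrome P450 panel screen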
Cytochrome P450 3A4, sequence (P08684 whole entry): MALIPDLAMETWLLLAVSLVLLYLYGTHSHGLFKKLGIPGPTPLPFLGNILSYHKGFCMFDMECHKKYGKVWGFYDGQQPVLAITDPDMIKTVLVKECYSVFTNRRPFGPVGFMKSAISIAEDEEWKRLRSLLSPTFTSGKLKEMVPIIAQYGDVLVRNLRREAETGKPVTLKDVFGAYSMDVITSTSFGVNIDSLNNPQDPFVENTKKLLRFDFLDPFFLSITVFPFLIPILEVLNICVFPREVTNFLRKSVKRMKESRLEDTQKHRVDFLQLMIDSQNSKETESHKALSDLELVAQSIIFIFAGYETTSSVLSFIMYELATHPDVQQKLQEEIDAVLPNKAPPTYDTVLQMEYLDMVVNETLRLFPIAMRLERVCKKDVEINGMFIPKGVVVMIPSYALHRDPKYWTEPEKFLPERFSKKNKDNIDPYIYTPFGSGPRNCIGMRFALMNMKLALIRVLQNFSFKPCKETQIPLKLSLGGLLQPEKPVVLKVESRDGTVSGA

Cytochrome P450 2D6 = Cytochrome P450 2D6 (Homo sapiens, UniProt P10635);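 also: CYP2D6 member of a cytochrome P450 panel assay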
Cytochrome P450 2D6, sequence (P10635 whole entry): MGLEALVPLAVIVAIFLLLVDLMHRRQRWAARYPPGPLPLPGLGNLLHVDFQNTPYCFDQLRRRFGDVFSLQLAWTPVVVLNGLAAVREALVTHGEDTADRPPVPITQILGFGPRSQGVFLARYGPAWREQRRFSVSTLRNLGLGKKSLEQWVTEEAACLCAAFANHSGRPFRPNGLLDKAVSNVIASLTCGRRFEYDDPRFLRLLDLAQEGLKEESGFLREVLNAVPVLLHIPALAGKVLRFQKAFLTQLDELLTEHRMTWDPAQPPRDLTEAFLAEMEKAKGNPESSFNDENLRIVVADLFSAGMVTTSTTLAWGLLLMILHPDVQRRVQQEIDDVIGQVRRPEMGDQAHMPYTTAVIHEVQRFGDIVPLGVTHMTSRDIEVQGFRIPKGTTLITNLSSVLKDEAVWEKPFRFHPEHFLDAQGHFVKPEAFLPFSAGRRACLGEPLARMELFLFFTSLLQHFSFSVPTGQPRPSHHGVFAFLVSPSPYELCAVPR

EC50 [1]: 9.4 µM (active)
Compound: CCC(C)CN1CC2CCC(NC(=O)c3cc(Cl)cc(Cl)c3)C2C1 (centres undefined)

Compound: Nc1nc2ccccc2n1S(=O)(=O)c1ccc(OC(F)(F)F)cc1
IC50 (Tumor necrosis factor): > 20 µM (inactive) | IC50 [2]: 8.94 µM (active) | IC50 (HEK293): > 20 µM (inactive) | IC50 [3]: > 20 µM (inactive)

Compound: COc1ccc(CN2C3CCCC2CC(NC(=O)Nc2cccc(C)c2)C3)cc1 (centres undefined)
IC50 [4]: 22.7 µM (active) | IC50 [5]: 11 µM (active) | IC50 [6]: 32.2 µM (active)

IC50 [7]: > 122 µM (inactive) | IC50 [8]: 35.3 µM (active) | IC50 [9]: 13 µM (inactive) | IC50 [10]: 52.5 µM (active) | IC50 [11]: 47.1 µM (active)
Compound: CCN(CC)c1ccc(N=Nc2nn(C)c(C)c2[N+](=O)[O-])cc1

Compound: CCc1ccc(/C=N/Nc2[nH]cnc3ncnc2-3)cc1
EC50 [12]: 12.5 µM (active) | EC50 [13]: 17.7 µM (active) | EC50 [14]: 6.62 µM (active) | IC50 [15]: 2.09 µM (active) | IC50 (cells): > 67.5 µM (inactive) | EC50 [16]: > 100 µM (inactive)

AC50 [17]: > 60 µM (inactive)
Compound: Cc1cc(C(=O)Nc2sc3c(c2C#N)CCC(C)C3)no1 (centres undefined)

EC50 [18]: > 195 µM (not active) | AC50 (Cytochrome P450 2C19): 0.2 µM (inconclusive) | AC50 (Cytochrome P450 3A4): 35.5 µM (inconclusive) | AC50 (Cytochrome P450 2D6): inconclusive
Compound: CCOC(=O)Cc1csc(NC(=O)c2sc3nc4ccc(CC)cc4cc3c2N)n1
